# PubChem BioAssay AID1985 (Southern Research Specialized Biocontainment Screening …, 2009)
# Tested on: S. Typhi PhoP-promoter GFP reporter, fluorescence, 4 h
# Assay: modified counter assay using GFP fluorescence, PhoP regulon inhibitor project, dose response (AID 1985)
row,SMILES,IC50
1,CCCCCc1ccc(OCCCC[n+]2cccc(C)c2)c(CCCCC)c1,103 µM
2,CC(C(=O)NC1C=CS(=O)(=O)C1)N1C(=O)/C(=C/c2cccc(Cl)c2)SC1=S (stereo unspecified),33.6 µM
3,O=C(Nc1ccc([N+](=O)[O-])cc1Cl)c1cc(Cl)ccc1O,76 µM
4,Cc1c(N2C(=O)/C(=C3\C(=O)N(CC(=O)O)c4ccccc43)SC2=S)c(=O)n(-c2ccccc2)n1C,91.6 µM
5,O=C(Cc1cccs1)N/N=C\c1ccc([N+](=O)[O-])s1,20.1 µM
6,O=[N+]([O-])/C=C/c1cc2ccccc2[nH]1,64.9 µM
7,CCn1cc(C(=O)O)c(=O)c2cc(F)c(N3CCN(C(=S)NC(=O)c4ccc(Br)cc4)CC3)cc21,31.2 µM
8,Oc1c(I)cc(Cl)c2cccnc12,8.07 µM
9,CN1CCC(OC(=O)c2cccc(Br)c2)CC1,120 µM
10,Nc1c(Cl)ncnc1N/N=C/c1ccccn1,33.4 µM
11,COc1ccc(Nc2cc(C)c3c(O)cccc3n2)cc1,34.4 µM
12,CCN1CCN(C(=O)c2cc3cc(Cl)ccc3[nH]2)CC1,67.4 µM
13,O=C1CSC(=S)N1c1cccc(O)c1,72.8 µM
14,CCn1cc(C(=O)O)c(=O)c2cc(F)c(N3CCN(C(=O)Nc4ccccc4)CC3)cc21,21.1 µM
15,CCc1nccc2c1[nH]c1ccccc12,123 µM
16,COc1cccc(C=NCC(C)N=Cc2cccc(OC)c2O)c1O (stereo unspecified),74.1 µM
17,CCCCCCC[N+](CC)(CC)CCCCc1ccc(Cl)cc1,80 µM
18,CCCOc1ccc(C(=O)NNC(=S)NC(C)=O)cc1,52.3 µM
19,CS(=O)(=O)c1ccc([C@@H](O)[C@@H](CF)NC(=O)C(Cl)Cl)cc1,4.74 µM

row,SMILES,IC50
1,NC1=NC[C@H](Cc2ccccc2)N1CCCCC1CCCCC1,36.1 µM
2,O=C(Cn1nc(CNc2ccc(Br)cc2)[n+]2c1CCCCC2)c1ccc([N+](=O)[O-])cc1,78.8 µM
3,CN(Cc1ccccc1O)CC1CCCN(CCc2ccc(Cl)cc2)C1 (stereo unspecified),51.6 µM
4,O=C(CCN1CCOCC1)c1ccc(Br)cc1,129 µM
5,O=C1C=CC(=O)N1CCCCCCN1C(=O)C=CC1=O,112 µM
6,O=C(NNC(=S)NC(=O)c1ccco1)c1ccc(F)cc1,96.8 µM
7,Clc1c(OCCCn2ccnc2)ccc2ccccc12,149 µM
8,CN1CCN(C2=Cc3ccccc3Sc3cc(F)c(Cl)cc32)CC1,106 µM
9,C#CCOCCOCCOCCNc1nc(N2CCN(C(=O)[C@H](Cc3cc4ccccc4[nH]3)n3cc([C@@H](N)CC(C)C)nn3)CC2)nc(N2CCN(C(=O)[C@H](Cc3cc4ccccc4[nH]3)n3cc([C@@H](N)CC(C)C)nn3)CC2)n1,67.5 µM
10,CC(=O)Nc1cccc(NC(=O)Nc2ccc(F)cc2F)c1,114 µM
11,Nc1cccc2nc3ccccc3cc12,44.5 µM
12,CO/N=C(/C(=O)N[C@@H]1C(=O)N2C(C(=O)O)=CCS[C@H]12)c1cnc(N)s1,59.8 µM
13,NC(=O)SCC(=O)Nc1cccc(Cl)c1,29.9 µM
14,Cc1nonc1C(=O)N/N=C/c1ccc([N+](=O)[O-])o1,24.7 µM
15,CCN(CCC(=O)Nc1ccc(Br)c(C)c1)Cc1ccccc1,79.8 µM
16,C[C@H]1c2cccc(O)c2C(O)=C2C(=O)C3(O)C(O)=C(C(N)=O)C(=O)[C@@H](N(C)C)[C@@H]3[C@@H](O)[C@@H]21 (stereo partly specified),1.9 µM
17,O=[N+]([O-])c1cc([N+](=O)[O-])c2cccnc2c1Oc1ccccc1O,88 µM
18,Cc1nonc1C(=O)N/N=C/c1ccc(O)cc1O,29.7 µM
19,Cc1ccc(OCc2nnc(NC(=O)c3cccnc3)s2)cc1,13.9 µM

row,SMILES,IC50
1,CCCCCCCCCCCCCCCC[N+](C)(C)CCN(Cc1ccc(OC)cc1)c1ncccn1,23.9 µM
2,O=C(Nc1ccccc1)Oc1ccc[nH]c1=O,55.8 µM
3,CN(C)c1ccc(O)c2c1CC1CC3C(N(C)C)C(=O)C(C(N)=O)=C(O)[C@@]3(O)C(=O)C1=C2O (stereo partly specified),3.21 µM
4,COc1ccc(NC(=O)c2[nH]ncc2[N+](=O)[O-])cc1,40.3 µM
5,O=c1[nH]c(-c2ccccn2)nc(C(F)(F)F)c1Br,66.7 µM
6,COc1ccc(OCC(O)CNc2ccc(Br)cc2)cc1 (stereo unspecified),3.55 µM
7,CNCC[C@H](Oc1cccc2ccccc12)c1cccs1,106 µM
8,CN(C)c1ccc(O)c2c1CC1CC3[C@@H](N(C)C)C(=O)C(C(N)=O)=C(O)[C@]3(O)C(=O)C1=C2O (stereo partly specified),5.1 µM
9,Cc1cc(C)n(/N=C/c2cc([N+](=O)[O-])ccc2O)c(=O)c1,70.5 µM
10,O=C(N/N=C/c1ccc([N+](=O)[O-])o1)C1CCCC1,37.7 µM
11,CN1CCN(Cc2cc(COCc3ccccc3)c3cccnc3c2O)CC1,62.9 µM
12,O=C(Cc1ccccc1)NNC(=S)NC(=O)c1cccs1,37.5 µM
13,O=[N+]([O-])c1cc(Cl)c2cccnc2c1O,1.46 µM
14,Nc1ncncc1-c1ccc([N+](=O)[O-])cc1,67.4 µM
15,COc1ccc(CCN2CCC(Nc3nc4ccccc4n3Cc3ccc(F)cc3)CC2)cc1,105 µM
16,CN1CCN(c2c(F)cc3c(=O)c(C(=O)O)cn4c3c2OCN4C)CC1,< 0.23 µM
17,O=C(CC(=O)c1ccccc1O)c1cccc(F)c1,37.9 µM
18,O=C(Cn1nc(CNc2ccc(Cl)cc2)[n+]2c1CCCCC2)c1ccc(Br)cc1,77.5 µM
